Test results: US9796676B2, “Honeybee repellents and uses thereof” (Inscent, Inc., priority 2013, dated 2017)

How the values were obtained:
[1] = test system: OBP2; assay: Fluorescent-quench ligand-protein-binding assay (OBP2 binding); design: species or system Apis mellifera
Source text: To identify a honeybee repellent disclosed herein, candidate compounds were screened based upon the fact that 2-heptanone is an established repellent of bees. 2-heptanone is thought to mediate its behavioral response through binding to a specific odorant-binding protein called OBP2. […] Such assays are generally known in the art. See, e.g., Briand, et al., Ligand-Binding Properties and Structural Characterization of a Novel Rat Odorant-Binding Protein Variant, Eur. J. Biochem. 267(10): 3079-3089 (2000); Briand, et al., Ligand Binding and Physico-Chemical Properties of ASP2, A Recombinant Odorant-Binding Protein From Honeybee (Apis mellifera L.), Eur. J. Biochem. 268(3): 752-760 (2001); Briand, et al., Characterization of a Chemosensory Protein (ASP3c) from Honeybee (Apis mellifera L.) as a Brood Pheromone Carrier, Eur. J. Biochem. 269(18): 4586-4596 (2002), each of which is hereby incorporated by reference in its entirety.

[2] = test system: Apis mellifera Carniolan foraging worker honeybees; assay: Proboscis extension response (PER) assay with bees conditioned to 2-heptanone; assay type: in vivo; conditions: 0.5% compound in Triton X-100/water on filter paper, 4 s exposure; only bees giving PER with 2-heptanone and not with water or 15% Triton X-100 controls counted
Procedure: To determine whether a living honeybee can recognize a candidate compound, these compounds were tested using a proboscis extension response (PER) assay using classical conditioning approaches. Proboscis extension response conditioning is a case of appetitive learning, in which bees learn to associate odor stimuli with sucrose reward in the laboratory. In this case, bees were conditioned to produce a PER to 2-heptanone as the conditioned stimulus and a sugar reward as the unconditioned stimulus. These trained bees were then exposed to an odor pulse of a candidate compound to test whether a candidate compound would also produce a PER. If the candidate compound “mimics” 2-heptanone then the honeybee will extend its proboscis.
For conditioning procedures, Apis mellifera Carniolan foraging worker honeybees were obtained from a local apiary (typically 60 bees per shipment). The honeybees were held overnight in insect cages with food and water freely available, in an environmentally controlled room on a light cycle similar to the ambient cycle at the time of the assay.
For conditioning procedures, all tests were done in an odorant delivery apparatus set inside a fume hood. The apparatus comprised a set of open-ended, horizontal, 3 cm diameter by 10 cm long plastic tubes. Each tube was designed where a honeybee could be positioned at the distal end of a tube, with the opening at the other end of the tube located proximal to an inlet of the fume hood. To deliver an odorant, room air was pumped by a diaphragm pump through a particle filter via 0.25 inch plastic tubing at approximately 0.7 m/sec. The air flow passes into the headspace above an odorant (0.5% [v/v] 2-heptanone dissolved in odorless light paraffin oil) contained in a 100 mL bottle. The headspace air then passes through another plastic tube to a manifold of 4-way valves, each of which was attached near the proximal end of a plastic tube containing a bee. Each bee was exposed separately for a desired time period to the odorant by opening and closing the appropriate valve. When each valve was closed, the odor was flushed away immediately by the continuous fume hood air stream.
To train a honeybee to respond to a conditioned and unconditioned stimuli, bees were placed, without anesthesia, in individual 1.5 mL micro-centrifuge holding tubes and held overnight without access to food or water. The holding tubes containing the starved bees were placed in racks in groups of eight. One rack at a time was placed behind the odorant delivery apparatus so that each bee's head is centered at the distal end of a horizontal plastic tube. Each bee was exposed to the 2-heptanone odorant alone for four seconds, and then while being fed an 80% sucrose solution for and additional three seconds. The sucrose solution was delivered on a piece of saturated filter paper held in forceps. […] Positive and negative responses were recorded. A positive PER was scored when a bee extended its proboscis before the sucrose appeared. In a typical trial, 48 individual bees were subjected to conditioning.
After conditioning, honeybees were tested with the candidate compounds the same day or on the following day or, most commonly, both. When held overnight, bees were fed with sucrose and kept in their holding tubes. When tested the day after training, bees were given one or more rounds of conditioning with 2-heptatone to refresh their memories. Candidate compounds stocks were made at 5% (w/v) in polyoxyethylene octyl phenyl ether (TRITON® X-100), a non-ionic detergent/surfactant, and stored at 4° C. […] Test solutions were made fresh daily by mixing stock solutions with water for a final compound concentration of 0.5%. A solution of 0.5% 2-heptanone in paraffin oil was used as a positive control.

[3] = test system: Apis mellifera Carniolan foraging worker honeybees; assay: Choice test in a free-flight box apparatus; assay type: in vivo; conditions: for P (probability that a honeybee will return to a test dish, nP divided by n): control likelihood without compound 47.5%; for nP (number of tests a honeybee returned to a preferred test dish): free-flight box, 2 μL of 0.05-0.5% compound on filter papers under honey dish
Source text: To determine whether living honeybees will choice to move towards a source of a candidate compound, these compounds will be assayed using a choice test in a free-flight box apparatus.
All tests will be done in a free-flight box apparatus. The apparatus comprises a 244 cm long×46 cm deep×30 cm high clear plastic box including two equally-sized independent testing chambers, each with 10 cm diameter air inlets that admit filtered room air, separated by a smaller central chamber with a screened air outlet to each testing chamber. Air can be pulled through the sealed box via a 10 cm diameter duct from the air outlet using an AQE Fume Fighter 500 fume extractor (BPA Air Quality Solutions, LLC, Charleston, S.C.), which removes the test odors using activated charcoal and HEPA filters. The box is housed in an environmentally controlled room with overhead illumination timed to correspond to the current ambient light cycle including 2 additional sets of lights timed to approximate crepuscular lighting conditions. The bottom of the apparatus will be lined with clean absorbent paper marked with a 4×9 grid pattern, forming 12 cm×12 cm squares with marked coordinates.
Apis mellifera Carniolan foraging worker honeybees will be obtained from a local apiary (typically 60 bees per shipment). Thirty honeybees will be put into each testing chamber and will be allowed to acclimate for 24 hours with food and water freely available. At the beginning of each test day all food will be removed from the test chamber, but water will be continually available throughout all tests. For each test, approximately 0.3 g of organic, raw orange blossom honey will be added to each clean small plastic weigh boat (Cole-Palmer). The honey boats will be placed in small plastic culture dishes, which will be distributed in the marked squares in the chambers. The positions of the dishes on the grid for a set of trials will be chosen to avoid the bees' preferred resting area so that they will have to find the food actively, but the same dish positions will be maintained for a given set of trials. We will use seven dishes of honey: six to which the bees will have access and a seventh that will have a screened lid. The honey in each boat will be weighed on an analytical balance before and after the test, with the screened sample as a control for evaporative loss. The fume extractor will be left off during the experimental trails, and will be turned on to clear the air after the test dishes are covered and removed from the chamber at the end of each trial.
Based on the observation that bees tend to return to dishes in the same position where they have fed before, each set of trials with each group of bees began with “Pattern Identification” tests to see which dishes lose the most weight, reflecting the most feeding. Once bees are consuming an acceptable amount in 10-15 min, typically in 1-2 trials, a set of test compound trials will begin. The test compound will be pipetted onto pieces of filter paper placed on the dish bottom below the boat containing a fresh, weighed honey sample so that the test compound will be inaccessible to the bees. We used 2 μL of a candidate compound at a concentration of 0.05-0.5%, in Triton X-100 or paraffin oil, on each of four pieces of filter paper per dish. The test-solution dishes will be set at the same positions as the one or two dishes favored in the preceding Pattern Identification trial. To eliminate interference from the solvent, the other dishes without the test substance will contain the same volume of the appropriate solvent on filter papers as the test solution dishes. The bees will be allowed to feed for 10-15 minutes. Bee movements will be recorded by a small, wide-angle digital video camcorder (HD Hero 960; GoPro, Halfmoon Bay, Calif.) placed on a tripod in front of the test chamber. […]

| SMILES | OBP2 binding characteristic of compound [1] | 2-heptanone positive bees testing positive to compound [2] | P (probability that a honeybee will return to a test dish, nP divided by n) [3] | nP (number of tests a honeybee returned to a preferred test dish) [3] |
| --- | --- | --- | --- | --- |
| CC(=O)c1ccccc1NC(=O)C1CCC(C(=O)Nc2ccccc2C(C)=O)S1 (stereo not shown) [compound 68, N,N′-bis(2-acetylphenyl)tetrahydro-2,5-thiophenedicarboxamide] | Moderate (Moderate, indicates that 50% or less of the compound bound to OBP2.) | 20.8% | 0.5 | 2 |
| Nc1c(C(=O)c2ccccc2)sc2nc(-c3cccnc3)ccc12 [compound 75, [3-amino-6-(3-pyridinyl)thieno[2,3-b]pyridin-2-yl](phenyl)methanone] | Moderate (Moderate, indicates that 50% or less of the compound bound to OBP2.) | 25.0% | 0.542 | 13 |
| Oc1ccc2ccccc2c1C=Nc1ccc(I)cc1 [compound 74, 1-{[(4-iodophenyl)imino]methyl}-2-naphthol] | Moderate (Moderate, indicates that 50% or less of the compound bound to OBP2.) | 25.0% | 0.45 | 18 |
| Oc1ccc2ccccc2c1C=NNc1ccccn1 [compound 66, 2-hydroxy-1-naphthaldehyde 2-pyridinylhydrazone] | Moderate (Moderate, indicates that 50% or less of the compound bound to OBP2.) | 24.4% | 0.379 | 22 |
| c1ccc(Oc2cc(-n3cccn3)nc(-c3ccccc3)n2)cc1 [compound 80, 4-phenoxy-2-phenyl-6-(1H-pyrazol-1-yl)pyrimidine] | Moderate (Moderate, indicates that 50% or less of the compound bound to OBP2.) | 20.0% | 0.333 | 2 |
| Oc1c(Br)cc(Cl)cc1C=Nc1ccccn1 [compound 83, 2-bromo-4-chloro-6-[(2-pyridinylimino)methyl]phenol] | Moderate (Moderate, indicates that 50% or less of the compound bound to OBP2.) | 47.7% | 0.278 | 10 |
| CCOc1ccccc1C=NN1C(=O)c2ccccc2C1=O [compound 79] | Moderate (Moderate, indicates that 50% or less of the compound bound to OBP2.) | 23.1% | 1 | 2 |
| COc1cc(C2N=C(c3ccccc3)N=C(c3ccccc3)N2)ccc1O (stereo not shown) [compound 67, 4-(4,6-diphenyl-1,2-dihydro-1,3,5-triazin-2-yl)-2-methoxyphenol] | Moderate (Moderate, indicates that 50% or less of the compound bound to OBP2.) | 26.5% | 0.321 | 9 |
| O=C1NC(=S)SC1=Cc1ccc(N2CCOCC2)c([N+](=O)[O-])c1 [compound 86, 5-[4-(4-morpholinyl)-3-nitrobenzylidene]-2-thioxo-1,3-thiazolidin-4-one] | Moderate (Moderate, indicates that 50% or less of the compound bound to OBP2.) | 38.1% | 0.25 | 8 |
| O=c1c2cc(O)cc3cccc(c32)c2nc3ccc4c5c(ccc(c35)n12)CC4 [compound 112] | Moderate (Moderate, indicates that 50% or less of the compound bound to OBP2.) | 44.4% |  |  |
| O=C(Nc1sc2c(c1C(=O)N1CCCCC1)CCCCC2)c1ccccc1 [compound 99] | Moderate (Moderate, indicates that 50% or less of the compound bound to OBP2.) | 29.0% |  |  |
| O=C(c1ccccc1)N1N=C(C(F)(F)F)CC1(O)c1ccccc1O (stereo not shown) [compound 73] | Moderate (Moderate, indicates that 50% or less of the compound bound to OBP2.) | 8.3% |  |  |
| CC(C)CCn1c(=O)c(C(=O)NCc2ccco2)c(O)c2ccccc21 [compound 95] | Moderate (Moderate, indicates that 50% or less of the compound bound to OBP2.) | 7.3% |  |  |
| O=C1C=Cc2ccccc2C1=NNc1ccc2c(c1)OCCO2 [compound 105] | Moderate (Moderate, indicates that 50% or less of the compound bound to OBP2.) | 24.3% |  |  |
